Measured values: US20090075867A1, “Triazine compounds and compositions thereof for the treatment of cancers” (priority 2005, published 2009)
Like-named read-outs stand apart in the source and are kept apart here.

Key:
[1] = system: PBML, Peripheral Blood Mononuclear Leukocytes; experiment: In vitro cytotoxicity (MTT) on PBML; type: cell-based; conditions: Leukocyte
Experimental: (§1) This assay was performed to determine the effect of compounds of the present invention on cell cytotoxicity. Cells were incubated in presence or absence of compounds in their respective conditioned media. […] The supernatant was discarded and 100 μl of dimethylsulfoxide (DMSO) was added. Absorbance was read at […] with an ELISA Tecan SUNRISE™ plate reader. The control group consisted of cells without compounds and is referred to as 100% of viable cells. IC50 was determined using PRISM® software.
(§2) The predictive utility of cell-based cytotoxicity assays to assess the potential in vivo anticancer activity of compounds with selected cancer cell lines is well established in the art and the use of whole cells, instead of isolated protein receptors or enzymes, provides a more reliable determination of activity. See, for example, Paull et al. J. Natl. Cancer Inst. 81:1088-1092 (1989); Monks et al. J. Natl. Cancer Inst. 83:757-766 (1991); Bandes et al. J. Natl. Cancer Inst. 86:770-775 (1994); and Kamate et al. Intl. J. Cancer 100:571-579 (2002).

DA-3 = experiment: In vitro cytotoxicity (MTT) on DA-3; type: cell-based, BALB/c mice; conditions: Mus musculus
Experimental: as §1, §2
The syngeneic tumor DMBA3 (DA-3, breast carcinoma model) arose from a preneoplastic lesion treated with 7,12-dimethylbenzanthracene in female BALB/c mice. DA-3 cells were grown as monolayer cultures in plastic flasks in RPMI-1640 containing 0.1 mM nonessential amino acids, 0.1 μM sodium pyruvate, 2 mM L-glutamine. This was further supplemented with 50 μM 2-mercaptoethanol and 10% fetal bovine serum. The DA-3 tumors were serially passage in vivo by intradermal inoculation of 5×10^5 viable tumor cells to produce localized tumors in 6- to 8-week old BALB/c mice. The animals were then serially monitored by manual palpation for evidence of tumor. Mice were treated at day 11, 18 and 25 with cyclophosphamide (100 mg/kg) and at day 11, 12, 13, 15, 18, 20, 22, 25, 27 and 29 with compound 1, 2, 3 or 8 (50 mg/kg). Mice were sacrificed at day 43. Serial tumor volume was obtained by bi-dimensional diameter measurements with calipers, using the formula 0.4 (a×b^2) where “a” was the major tumor diameter and “b” the minor perpendicular diameter. […] The National Cancer Institute (USA) defines the product as effective if T/C is ≦40%.

Hep-G2, human liver cell = experiment: In vitro cytotoxicity (MTT) on Hep-G2; type: cell-based
Experimental: as §1, §2

[2] = system: NHDF, Normal Human Dermal Fibroblast; experiment: In vitro cytotoxicity (MTT) on NHDF; type: cell-based
Experimental: as §1, §2

[3] = system: B16F10, murine melanoma cell; experiment: In vitro cytotoxicity (MTT) on B16F10; type: cell-based; conditions: Mus musculus, B16-F10
Experimental: as §1, §2

[4] = system: CAKI-2, human kidney cell; experiment: In vitro cytotoxicity (MTT) on CAKI-2; type: cell-based
Experimental: as §1, §2

[5] = system: P815, murine mastocytoma cell; experiment: In vitro cytotoxicity (MTT) on P815; type: cell-based; conditions: Mus musculus
Experimental: as §1, §2

B16F10 lung metastases = type: in vivo
Experimental: Female 6-8-week old C57BL/6 mice were injected intravenously on day 0 with 1-2.5×10^5 B16F10 melanoma cells from ATCC (source of cell culture, Dr. I. J. Fidler). B16F10 melanoma cells are a highly metastatic cell line which preferentially forms nodules in the lungs. Cells were cultured in DMEM supplemented with 10% fetal bovine serum. […] Fourteen days after inoculation, mice were sacrificed and their lungs were removed, rinsed in PBS, and placed in Bouin's fixative. The number of metastatic nodules (black colonies) on the surface of the lungs were counted.

[6] = system: PC-3, human prostate carcinoma cell; experiment: In vitro cytotoxicity (MTT) on PC-3; type: cell-based
Experimental: as §1, §2

[7] = FIG. 3, 50 mg/kg i.v. on day -3, -2, -1, 3, 5 and 7, p<0.001

Structure (SMILES)	IC50 ([1]; 24-hour cell culture) [µM]	IC50 ([1]; 72-hour cell culture) [µM]	IC50 (DA-3; 24-hour cell culture) [µM]	IC50 (DA-3; 72-hour cell culture) [µM]	IC50 (Hep-G2, human liver cell; HepG2, 24-hour cell culture) [µM]	IC50 (Hep-G2, human liver cell; HepG2, 72-hour cell culture) [µM]	IC50 ([2]; 24-hour cell culture) [µM]	IC50 ([2]; 72-hour cell culture) [µM]	IC50 ([3]; 24-hour cell culture) [µM]	IC50 ([3]; 72-hour cell culture) [µM]	IC50 ([4]; 24-hour cell culture) [µM]	IC50 ([4]; 72-hour cell culture) [µM]	IC50 ([5]; 24-hour cell culture) [µM]	IC50 ([5]; 72-hour cell culture) [µM]	inhibition of the number of tumor nodules in lungs (B16F10 lung metastases; [7])	IC50 ([6]; 24-hour cell culture) [µM]	IC50 ([6]; 72-hour cell culture) [µM]	inhibition of the number of tumor nodules in lungs (B16F10 lung metastases; FIG. 5, p<0.05) [%]	reduction of the number of tumor nodules (B16F10 lung metastases; FIG. 4, used alone, compound 50 mg/kg i.v., doxorubicin 1 mg/kg) [%]
Oc1ccc(CCNc2nc(NCCNc3nc(NCCc4ccc(O)cc4)nc(Nc4ccccc4)n3)nc(Nc3ccccc3)n2)cc1 [Compound 1]	98	45	4	4.2	19	23	> 100	16	6	6	> 40	15	34	34	significant inhibition	8.3	8.3		
Nc1ccc(CCNc2nc(NCCNc3nc(NCCc4ccc(N)cc4)nc(Nc4cccc(N)c4)n3)nc(Nc3cccc(N)c3)n2)cc1 [Compound 3]	> 100	> 100			> 40		> 100	> 100	4	6	> 40		33	3		> 100	15		
Nc1cccc(Nc2nc(NCCO)nc(Nc3ccc(Nc4nc(NCCO)nc(Nc5cccc(N)c5)n4)cc3)n2)c1 [Compound 4]	100	> 100					> 100	> 100	12	37			86	32		78	37		
Nc1cccc(Nc2nc(N)nc(Nc3cccc(Nc4nc(N)nc(Nc5cccc(N)c5)n4)c3)n2)c1 [Compound 5]	> 100	> 100	20				> 100	78	8.5	39			> 100	44.7		50	26		
Nc1cccc(Nc2nc(NCCO)nc(Nc3cccc(Nc4nc(NCCO)nc(Nc5cccc(N)c5)n4)c3)n2)c1 [Compound 6]	> 100	> 100	30				> 100	> 100	2.6				> 100	> 100		63			
CN(C)c1nc(NCCc2ccc(Nc3nc(Nc4cccc(N)c4)nc(N(C)C)n3)cc2)nc(Nc2cccc(N)c2)n1 [Compound 7]	> 100	79					> 100	> 100	2.2	3			20	1.3		85	8		
Nc1cccc(Nc2nc(NCCO)nc(NCc3cccc(F)c3)n2)c1 [Compound 9]	> 100	> 100					> 100	> 100	> 100	91			> 100	43		> 100	> 100		
CC(Nc1nc(Nc2cccc(N)c2)nc(Nc2cccc(N)c2)n1)c1cccc(N)c1 (centres unmarked) [Compound 10]	> 100	> 100	> 100				> 100	> 100	62	36			> 100	36.6	significant inhibition	74			
Nc1cccc(Nc2nc(NCCNc3nc(Nc4cccc(N)c4)nc(Nc4cccc(O)c4)n3)nc(Nc3cccc(O)c3)n2)c1 [Compound 11]									1.4	6.3			21.2	4.8		4.4	4.9		
CN(C)c1nc(NCCc2ccc(Nc3nc(NCCO)nc(Nc4cccc(N)c4)n3)cc2)nc(Nc2cccc(N)c2)n1 [Compound 12]									1.2	2			13.5	2.8		11	3.3		
CN1CCN(c2nc(Nc3ccc(CCNc4nc(NCCO)nc(Nc5cccc(N)c5)n4)cc3)nc(Nc3cccc(N)c3)n2)CC1 [Compound 13]									1.9	2.2			6.5	2.1		11	6.1		
Nc1cccc(Nc2nc(NCCO)nc(Nc3cccc(Nc4nc(NCCO)nc(Nc5cccc(F)c5)n4)c3)n2)c1 [Compound 14]									2.6	10.2			13.1	7.8		29.9	15.6	50	
Nc1cccc(CCNc2nc(Nc3ccc(CCNc4nc(NCCO)nc(Nc5cccc(N)c5)n4)cc3)nc(Nc3cccc(N)c3)n2)c1 [Compound 15]									1.8	2.9			13.4	3.3		10.9	4.3		
CN(C)c1nc(Nc2ccc(CCNc3nc(NCCO)nc(Nc4cccc(N)c4)n3)cc2)nc(Nc2cccc(N)c2)n1 [Compound 16]									0.5	3.5			12.6	2.4		20.3	5.1		
Nc1cccc(Nc2nc(NCCO)nc(NCCc3ccc(Nc4nc(NCCc5ccccc5N)nc(Nc5cccc(N)c5)n4)cc3)n2)c1 [Compound 17]									1.2	3.6			14.5	1.5		11.6	4		
CN1CCN(c2nc(NCCc3ccc(Nc4nc(Nc5cccc(N)c5)nc(N5CCN(C)CC5)n4)cc3)nc(Nc3cccc(N)c3)n2)CC1 [Compound 18]									1.1	0.6			2.5	0.7		12.2	10.3		
Nc1cccc(Nc2nc(NCCO)nc(Nc3ccc(Nc4nc(NCCO)nc(Nc5cccc(F)c5)n4)cc3)n2)c1 [Compound 19]			4.5	13.4			19.4		2.8	6.2			16.4	8.6		8.2	5.7		
COc1cccc2c1C(=O)c1c(O)c3c(c(O)c1C2=O)C[C@@](O)(C(=O)CO)C[C@@H]3O[C@H]1C[C@H](N)[C@H](O)[C@H](C)O1 [doxorubicin, reference compound]																			90
